Source: US10722516B2, “Use of landiolol hydrochloride in the long-term treatment of tachyarrhythmias” (AOP Orphan Pharmaceuticals AG, priority 2013, dated 2020)
Structures can show the parent of a compound that is named as a salt.

How the values were obtained:
healthy volunteers [1] = assay: 24 h long-term infusion study: local tolerability and safety; assay type: in vivo, human
Method: (§1) A single centre prospective, randomized, double blind, crossover, pharmacokinetic, safety and tolerability study to compare long-term infusion administration of AOP LDLL600 against esmolol in healthy volunteers was performed.
(§2) Landiolol hydrochloride lyophilized (LDLL600) comprises 600 mg landiolol hydrochloride, 600 mg mannitol, pH 6.5. The primary packing of LDLL600 is 50 ml vial, the reconstitution volume is 50 ml and the final product concentration is 12 mg/mL landiolol HCl.
(§3) 12 subjects were administered AOP LDLL600 or Esmolol (Brevibloc, 2500 mg/250 ml) in 1:1 ratio in double-blind, randomized, cross-over setting. PK, systemic cardiovascular and local tolerability and safety of the 24 h-long term infusions of three dose levels of both IMPs during each treatment period were assessed.
(§4) Landiolol was infused over 24 h in a dose of 10 μg/KG/min (2 hrs), followed by 20 μg/KG/min (2 hrs), followed by 40 μg/KG/min for 20 hrs.
(§5) Dosing algorithm was body weight divided by 20, 10 and 5 in ml/h giving 10, 20 and 40 μg/KG/min at a concentration of 12 mg/ml. No severe adverse drug reactions, mild local reactions, 1 severe local reaction (Esmolol High Dose).
(§6) Landiolol was infused over 24 h in a dose of 10, 20 and 40 μg/KG/min, i.e. 10 μg/KG/min landiolol were administered for 2 hrs, followed by 2 hrs administration of 20 μg/KG/min and further followed by 20 hrs administration of 40 μg/KG/min.

healthy volunteers [2] = assay: 24 h long-term infusion study, AOP LDLL600 against esmolol: heart rate; assay type: in vivo, human
Method: as §1, §2, §3, §4, §5, §6
Post-infusion follow up measurements were performed immediately after 20 hrs administration study, i.e. 2, 4 min etc. after stop of landiolol administration.

[3] = 24 h infusion, three dose levels
[4] = FU Predose (end of 20 h HD, infusion stop)
[5] = FU post-infusion, 20 h 2 min (2 min after infusion stop)
[6] = FU post-infusion, 20 h 4 min (4 min after infusion stop)
[7] = FU post-infusion, 20 h 6 min (6 min after infusion stop)
[8] = FU post-infusion, 20 h 8 min (8 min after infusion stop)
[9] = FU post-infusion, 20 h 12 min (12 min after infusion stop)
[10] = FU post-infusion, 20 h 16 min (16 min after infusion stop)
[11] = FU post-infusion, 20 h 20 min (20 min after infusion stop)
[12] = FU post-infusion, 20 h 30 min (30 min after infusion stop)
[13] = FU post-infusion, 21 h (1 h after infusion stop)
[14] = FU post-infusion, 22 h (2 h after infusion stop)
[15] = FU post-infusion, 24 h (4 h after infusion stop)
[16] = FU post-infusion, 26 h (6 h after infusion stop)
[17] = HD infusion (landiolol 40, esmolol 200 μg/kg/min, after LD and MD), 2 min
[18] = HD infusion (landiolol 40, esmolol 200 μg/kg/min, after LD and MD), 3 min
[19] = HD infusion (landiolol 40, esmolol 200 μg/kg/min, after LD and MD), 4 min
[20] = HD infusion (landiolol 40, esmolol 200 μg/kg/min, after LD and MD), 6 min
[21] = HD infusion (landiolol 40, esmolol 200 μg/kg/min, after LD and MD), 8 min
[22] = HD infusion (landiolol 40, esmolol 200 μg/kg/min, after LD and MD), 12 min
[23] = HD infusion (landiolol 40, esmolol 200 μg/kg/min, after LD and MD), 16 min
[24] = HD infusion (landiolol 40, esmolol 200 μg/kg/min, after LD and MD), 20 min
[25] = HD infusion (landiolol 40, esmolol 200 μg/kg/min, after LD and MD), 30 min
[26] = HD infusion (landiolol 40, esmolol 200 μg/kg/min, after LD and MD), 60 min
[27] = HD infusion (landiolol 40, esmolol 200 μg/kg/min, after LD and MD), 90 min
[28] = HD infusion (landiolol 40, esmolol 200 μg/kg/min, after LD and MD), 2 h
[29] = HD infusion (landiolol 40, esmolol 200 μg/kg/min, after LD and MD), 4 h
[30] = HD infusion (landiolol 40, esmolol 200 μg/kg/min, after LD and MD), 8 h
[31] = HD infusion (landiolol 40, esmolol 200 μg/kg/min, after LD and MD), 12 h
[32] = HD infusion (landiolol 40, esmolol 200 μg/kg/min, after LD and MD), 16 h
[33] = HD infusion (landiolol 40, esmolol 200 μg/kg/min, after LD and MD), 20 h (end)

In the case of `CC1(C)OC[C@@H](COC(=O)CCc2ccc(OC[C@@H](O)CNCCNC(=O)N3CCOCC3)cc2)O1` [Landiolol, (−)-[(S)-2,2-dimethyl-1,3-dioxolan-4-yl]methyl 3-[4-[(S)-2-hydroxy-3-(2-morpholinocarbonylamino)ethylamino]propoxy]phenylpropionate monohydrochloride], the “local tolerability compared to Esmolol” value (healthy volunteers [1]; 24 h infusion) is reported as “clearly better”, the “local reactions (percent of subjects)” value (healthy volunteers [1]; [3]) is reported as 16.7% and the “local reactions (subjects/total)” value (healthy volunteers [1]; [3]) is reported as 2/12. The “local venous skin irritations or inflammatory reactions at the site of injection” value (healthy volunteers [1]; long term treatment) was “did not bring about any blushing, erythema, pain, inflammation, induration, phlebitis and thrombosis”, the “change of heart rate from predose, Mean (SD)” value (shortened to “change of heart rate … (SD)”) (healthy volunteers [2]; [4]) was −5.7 (11.51) beats per minute and the “heart rate, Mean (SD)” value (healthy volunteers [2]; [4]) was 61.7 (5.87) beats per minute. For the same molecule, the “change of heart rate … (SD)” value (healthy volunteers [2]; [5]) was −6.8 (11.98) beats per minute, the “heart rate, Mean (SD)” value (healthy volunteers [2]; [5]) was 60.6 (5.50) beats per minute and the “change of heart rate … (SD)” value (healthy volunteers [2]; [6]) was −6.5 (9.88) beats per minute. For the same molecule, the “heart rate, Mean (SD)” value (healthy volunteers [2]; [6]) was 60.8 (4.04) beats per minute, the “change of heart rate … (SD)” value (healthy volunteers [2]; [7]) was −5.9 (9.79) beats per minute and the “heart rate, Mean (SD)” value (healthy volunteers [2]; [7]) was 61.4 (5.43) beats per minute. For the same molecule, the “change of heart rate … (SD)” value (healthy volunteers [2]; [8]) was −5.7 (10.63) beats per minute, the “heart rate, Mean (SD)” value (healthy volunteers [2]; [8]) was 61.7 (5.33) beats per minute and the “change of heart rate … (SD)” value (healthy volunteers [2]; [9]) was −3.8 (10.00) beats per minute. The “heart rate, Mean (SD)” value (healthy volunteers [2]; [9]) was 63.5 (6.11) beats per minute, the “change of heart rate … (SD)” value (healthy volunteers [2]; [10]) was −0.3 (14.69) beats per minute and the “heart rate, Mean (SD)” value (healthy volunteers [2]; [10]) was 67.0 (8.92) beats per minute. The “change of heart rate … (SD)” value (healthy volunteers [2]; [11]) was −0.3 (11.89) beats per minute, the “heart rate, Mean (SD)” value (healthy volunteers [2]; [11]) was 67.0 (8.29) beats per minute and the “change of heart rate … (SD)” value (healthy volunteers [2]; [12]) was 2.7 (9.47) beats per minute. For the same molecule, the “heart rate, Mean (SD)” value (healthy volunteers [2]; [12]) was 70.0 (5.70) beats per minute, the “change of heart rate … (SD)” value (healthy volunteers [2]; [13]) was 1.8 (12.70) beats per minute and the “heart rate, Mean (SD)” value (healthy volunteers [2]; [13]) was 69.2 (9.64) beats per minute. For the same molecule, the “change of heart rate … (SD)” value (healthy volunteers [2]; [14]) was −0.5 (9.97) beats per minute, the “heart rate, Mean (SD)” value (healthy volunteers [2]; [14]) was 66.8 (8.43) beats per minute and the “change of heart rate … (SD)” value (healthy volunteers [2]; [15]) was 4.2 (10.34) beats per minute. The “heart rate, Mean (SD)” value (healthy volunteers [2]; [15]) was 71.5 (4.96) beats per minute, the “change of heart rate … (SD)” value (healthy volunteers [2]; [16]) was 5.3 (9.97) beats per minute and the “heart rate, Mean (SD)” value (healthy volunteers [2]; [16]) was 72.6 (5.26) beats per minute. For the same molecule, the “change of heart rate … (SD)” value (healthy volunteers [2]; HD Predose (end of 2 h MD)) was −11.3 (9.41) beats per minute, the “heart rate, Mean (SD)” value (healthy volunteers [2]; HD Predose (end of 2 h MD)) was 56.1 (7.38) beats per minute and the “change of heart rate … (SD)” value (healthy volunteers [2]; [17]) was −9.6 (8.69) beats per minute. The “heart rate, Mean (SD)” value (healthy volunteers [2]; [17]) was 57.8 (5.43) beats per minute, the “change of heart rate … (SD)” value (healthy volunteers [2]; [18]) was −9.9 (9.92) beats per minute and the “heart rate, Mean (SD)” value (healthy volunteers [2]; [18]) was 57.4 (6.40) beats per minute. For the same molecule, the “change of heart rate … (SD)” value (healthy volunteers [2]; [19]) was −12.6 (9.52) beats per minute, the “heart rate, Mean (SD)” value (healthy volunteers [2]; [19]) was 54.8 (5.45) beats per minute and the “change of heart rate … (SD)” value (healthy volunteers [2]; [20]) was −9.7 (11.01) beats per minute. For the same molecule, the “heart rate, Mean (SD)” value (healthy volunteers [2]; [20]) was 57.7 (7.38) beats per minute, the “change of heart rate … (SD)” value (healthy volunteers [2]; [21]) was −10.7 (10.76) beats per minute and the “heart rate, Mean (SD)” value (healthy volunteers [2]; [21]) was 56.7 (6.62) beats per minute. For the same molecule, the “change of heart rate … (SD)” value (healthy volunteers [2]; [22]) was −9.4 (12.21) beats per minute, the “heart rate, Mean (SD)” value (healthy volunteers [2]; [22]) was 57.9 (8.13) beats per minute and the “change of heart rate … (SD)” value (healthy volunteers [2]; [23]) was −11.3 (10.71) beats per minute. The “heart rate, Mean (SD)” value (healthy volunteers [2]; [23]) was 56.0 (6.80) beats per minute, the “change of heart rate … (SD)” value (healthy volunteers [2]; [24]) was −11.4 (9.74) beats per minute and the “heart rate, Mean (SD)” value (healthy volunteers [2]; [24]) was 55.9 (6.35) beats per minute. The “change of heart rate … (SD)” value (healthy volunteers [2]; [25]) was −10.5 (10.30) beats per minute, the “heart rate, Mean (SD)” value (healthy volunteers [2]; [25]) was 56.8 (7.23) beats per minute and the “change of heart rate … (SD)” value (healthy volunteers [2]; [26]) was −5.4 (13.14) beats per minute. The “heart rate, Mean (SD)” value (healthy volunteers [2]; [26]) was 61.9 (8.93) beats per minute, the “change of heart rate … (SD)” value (healthy volunteers [2]; [27]) was −4.8 (11.24) beats per minute and the “heart rate, Mean (SD)” value (healthy volunteers [2]; [27]) was 62.5 (5.95) beats per minute. The “change of heart rate … (SD)” value (healthy volunteers [2]; [28]) was −3.0 (9.59) beats per minute, the “heart rate, Mean (SD)” value (healthy volunteers [2]; [28]) was 64.3 (5.25) beats per minute and the “change of heart rate … (SD)” value (healthy volunteers [2]; [29]) was −6.9 (11.24) beats per minute. For the same molecule, the “heart rate, Mean (SD)” value (healthy volunteers [2]; [29]) was 60.4 (5.25) beats per minute, the “change of heart rate … (SD)” value (healthy volunteers [2]; [30]) was −9.8 (10.39) beats per minute and the “heart rate, Mean (SD)” value (healthy volunteers [2]; [30]) was 57.5 (5.96) beats per minute. The “change of heart rate … (SD)” value (healthy volunteers [2]; [31]) was −10.8 (10.17) beats per minute, the “heart rate, Mean (SD)” value (healthy volunteers [2]; [31]) was 56.5 (6.08) beats per minute and the “change of heart rate … (SD)” value (healthy volunteers [2]; [32]) was −13.8 (10.01) beats per minute. For the same molecule, the “heart rate, Mean (SD)” value (healthy volunteers [2]; [32]) was 53.6 (4.89) beats per minute, the “change of heart rate … (SD)” value (healthy volunteers [2]; [33]) was −5.7 (11.51) beats per minute and the “heart rate, Mean (SD)” value (healthy volunteers [2]; [33]) was 61.7 (5.87) beats per minute. For the same molecule, the “change of heart rate … (SD)” value (healthy volunteers [2]; LD infusion (landiolol 10, esmolol 50 μg/kg/min), 2 min) was −1.8 (7.77) beats per minute.
